Results reported in PubChem BioAssay AID179 (DTP/NCI, 2004).
Active and inactive are the calls of the source.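 Rule for the calls: active = compounds giving half or more protection of infected cells from virus-caused growth loss, again on retest; inactive = the rest.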 Where a SMILES comes first, the peptide text is derived from it. The star is where a group is joined. CH2Cl = ClC*

System: CEM cells HIV-1 protection, formazan growth assay
Assay: NCI AIDS Antiviral Assay
Settings: for IC50: measured here: growth of uninfected CEM cells
In short: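 CEM (human) cells, HIV-1 infected vs uninfected, 5-point dosing, formazan growth read-out. Retest threshold 50% protection.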

Compound	outcome	EC50	IC50
CCOC(=O)NC(=O)c1cn(CCCCCCCCCCC(=O)N2CCN(CCn3cc(C(=O)NC(=O)OCC)c(=O)[nH]c3=O)CC2)c(=O)[nH]c1=O	inactive	–	–
O=C(OC1=CCN(Br)C1=O)C1=C(O)C(=O)N(Br)C1	–	> 200 µM	32.4 µM
C#CCCCCC#Cc1ccccc1C(=O)OC	–	> 151 µM	28.8 µM
COc1ccc(/C(Cl)=C(\CNc2ccccn2)c2ccccc2)cc1OC	–	> 200 µM	> 200 µM
CC(C(=O)O)c1ccc(-n2nnc3c(=O)[nH][nH]c(=O)c32)cc1 (centres undefined)	–	> 200 µM	> 200 µM
O=c1[nH]c2ccccc2nc1/C=C/NC(=S)NCc1ccccc1	inactive	–	–
COc1ccc2nc3cccc([N+](=O)[O-])c3c(NCCN(CCO)CCO)c2c1	–	> 2 µM	0.0977 µM
CC(C)=CCc1ccc2[nH]c3c(c2c1)C(=O)C(=O)C(C)=C3C(O)C(C)O (centres undefined)	–	> 200 µM	1.95 µM
COc1ccc(NC(=S)NN=C(C)c2cccc(C(C)=NNC(=S)Nc3ccc(OC)cc3)n2)cc1	–	> 200 µM	55 µM
CC1(C)C(C#N)C(=O)N=C(N)C1C(N)=O (centres undefined)	–	> 200 µM	> 200 µM
Cc1cccc(-c2nnc3s/c(=C\c4ccc(N(C)C)cc4)c(=O)n23)c1	–	> 30.9 µM	> 30.9 µM
Brc1ccc(/C(N=N/C(=N\Sc2ccccc2)c2ccc(Br)cc2)=N/Sc2ccccc2)cc1	–	> 50.1 µM	> 50.1 µM
Clc1nc(Cl)nc(N2CCCc3ccccc32)n1	–	> 200 µM	3.89 µM
Cc1ccc2c(c1)Nc1ccccc1P2(=O)O	–	> 200 µM	> 200 µM
Cc1ccc(S(=O)(=O)N2CCN(CCO)CCN(S(=O)(=O)c3ccc(C)cc3)CCN(CCO)CC2)cc1	–	> 200 µM	34.7 µM
CCSCN(C)c1nc(N(C)C)nc(N(C)C)n1	–	> 200 µM	8.51 µM
OCC(CCc1ccccc1I)C1=CCC2(CC1)OCCO2 (centres undefined)	–	> 200 µM	34.7 µM
O=C(CC(=O)CC(O)(C(F)(F)F)C(F)(F)F)CC(O)(C(F)(F)F)C(F)(F)F	–	> 200 µM	10.5 µM
CCCN1C(=O)CNC(=O)c2[nH]cnc21	inactive	–	–
c1ccc(C[P+](c2ccccc2)(c2ccccc2)c2ccccc2)cc1	–	> 200 µM	3.89 µM
Cn1c(=O)ccc2c1nc1ccccc1[n+]2[O-]	–	> 60.3 µM	> 60.3 µM
C=CCn1c(-c2ccccc2)cs/c1=N\C(P(=O)(O)O)P(=O)(O)O	–	> 200 µM	> 200 µM

Compound	outcome	EC50	IC50
COC(=O)C(N)CSc1ccc([N+](=O)[O-])cc1[N+](=O)[O-] (centres undefined)	–	> 741 µM	115 µM
CC1(C)OC2OC(COC(=O)C=[N+]=[N-])C3OC(C)(C)OC3C2O1 (centres undefined)	–	> 200 µM	> 200 µM
CCN(CC)c1c(C)nnc2c(-c3ccccc3)cnn12	–	> 18.6 µM	> 18.6 µM
C/C(=N/N)c1sc(-c2nc(C)c(/C(C)=N\N)s2)nc1C	–	> 61.7 µM	> 61.7 µM
CCOP(=O)(OCC)C1C(=O)O[C@H]2CCCC[C@@H]12 (some centres undefined)	inactive	–	–
O=C(Cc1ccc(Cl)cc1)NC(NC(=O)Cc1ccc(Cl)cc1)C(Cl)(Cl)Cl	–	> 200 µM	> 200 µM
COC(=O)c1cc(Cc2cc(C)c(OC)c(C(=O)OC)c2)cc(C)c1OC	–	> 200 µM	14.5 µM
CC(=O)NNc1nc(C)c(C(=O)NNC(=O)C(=O)Nc2ccc(C)cc2[N+](=O)[O-])s1	–	> 83.2 µM	39.8 µM
C=C(CN(C)C)C(=O)c1ccc(C)cc1C	–	> 200 µM	11.7 µM
COc1ccc(N=Nc2c(C)c(C#N)c(=S)n(C3OC(COC(C)=O)C(OC(C)=O)C(OC(C)=O)C3OC(C)=O)c2-c2ccccc2)cc1 (centres undefined)	–	> 200 µM	126 µM
CCO/C=N\C1=C(C#N)SC2=N/C(=C\c3ccc(OC)cc3)C(=O)N21	–	> 200 µM	> 200 µM
O=[N+]([O-])c1ccc2occ3c2c1CCC3	–	67.6 µM	263 µM
COC(=O)c1cc(C(CCl)c2cc(C(=O)OC)c(O)c(Br)c2C)c(C)c(Br)c1O	inactive	–	–
CCOC(=O)C1N=[N+](c2ccccc2)C(=O)/C1=C\n1c(=S)[nH]c2ccc([N+](=O)[O-])cc21 (centres undefined)	–	> 200 µM	107 µM
O=C(NI1OC(=O)c2ccccc21)c1ccc(Cl)cc1	–	> 151 µM	85.1 µM
Cc1ccc(SSCCCCS(=O)O)cc1	inactive	–	–
CCOC(=O)NC(S(=O)(=O)O)S(=O)(=O)O	–	> 200 µM	> 200 µM
O=S(=O)(O)CCNC(=S)C(=S)NCCS(=O)(=O)O	inactive	–	–
COC(=O)C1Cc2c([nH]c3ccccc23)C(C2CCCCC2)N1 (centres undefined)	inactive	–	–
CC(C)CC(NC(=O)C(Cc1ccccc1)NC(=O)[C@H]1CC[C@H](NC(=O)C(N)Cc2ccc(O)cc2)C1)C(N)=O (some centres undefined)	inactive	–	–
COc1ccc(/C=C(\C#N)C(=O)c2ccccc2)cc1	–	> 97.7 µM	56.2 µM
Cc1cc(=O)oc2cc3c(cc12)Oc1ccccc1O3	–	> 25.7 µM	> 25.7 µM

Compound	outcome	EC50	IC50
CN(c1ccccc1)S(=O)(=O)c1ccc([N+](=O)[O-])cc1	–	> 200 µM	110 µM
O=C(O)c1cc2ccccc2c(Br)c1O.O=[N+]([O-])C1CCC(O)C2[N-]CCCC21.[Cu+]	–	> 200 µM	3.39 µM
CCCC(=O)OCC1=CCC2c3c(c4ccccc4n3C)CC1N2Cc1ccccc1 (centres undefined)	–	> 21.4 µM	3.8 µM
CCOC(OCC)c1ccc(N(C)C)cc1.[C-]#[O+].[C-]#[O+].[C-]#[O+].[Cr]	–	> 20 µM	3.39 µM
COc1ccc2c(c1)C(=O)CC1c3cnccc3C(=O)N21 (centres undefined)	–	> 200 µM	115 µM
COc1ccc(CCNc2ccc(NCCc3ccc(OC)c(OC)c3)c3c2C(=O)c2ccccc2C3=O)cc1OC	inactive	–	–
CC1NS(=O)(=O)N(C)C1=O (centres undefined)	inactive	–	–
COc1ccc2c(c1)[n+](=O)c(C(C)=O)c(C)n2[O-]	–	> 1000 µM	355 µM
COC(=O)C12C3C4C1C1C2C3C41C(=O)O (centres undefined)	–	> 1200 µM	> 1200 µM
Cc1ccc(N2C(=O)/C(=C\c3ccc(N(CCC#N)CCC#N)cc3)N=C2COc2ccccc2)cc1	–	> 38 µM	> 38 µM
CN(C)COC(=S)[S-].CN(C)COC(=S)[S-].CN(C)COC(=S)[S-].[Fe+6]	–	> 2 µM	0.363 µM
CC(=O)OC1CCC2(C)C(C1)CC(OC(C)=O)C1C2CC(OC(C)=O)C2(C)C(C(C)CC(=O)C(=O)c3ccccc3)CCC12 (centres undefined)	–	> 6.17 µM	2.63 µM
N#Cc1c(NCCc2ccc(F)cc2)c2ccccc2n2c1nc1ccccc12	–	11 µM	> 200 µM
O=c1[nH]c(=O)ss1	–	> 105 µM	> 100 µM
CC(=O)Nc1ccccc1NC1CC(C)N(c2ccccc2)N1C(C)=O (centres undefined)	–	> 200 µM	32.4 µM
CCNC(=O)OCc1cnc(C)c(O)c1COC(=O)NCC	–	> 200 µM	> 200 µM
CC(=O)NC(CC(C)C)C(=O)NC(Cc1ccccc1)C(=O)CCl (stereo not drawn) (Ac-Leu-Phe-CH2Cl; configuration not given here)	–	> 200 µM	1.12 µM
COc1cccc(N2C(=O)C3c4[nH]c5ccc(C)cc5c4C4CCC(C(C)(C)C)CC4C3C2=O)c1 (centres undefined)	–	> 200 µM	9.55 µM
COC(=O)C(=O)C(C(=O)C(N)=O)c1nc2ccc(C(=O)c3ccccc3)cc2[nH]c1=O (centres undefined)	–	> 85.1 µM	> 85.1 µM
CCC(O)CCCCCCCCCCCCCCC(=O)O (centres undefined)	inactive	–	–
O=Nc1ccccc1	–	> 200 µM	> 200 µM
NC(=S)N/N=C\NN/C=N/NC(N)=S	–	> 200 µM	102 µM

Compound	outcome	EC50	IC50
COc1ccc(/C=C2\N=C(c3ccccc3)N(Nc3nnc(NN4C(=O)/C(=C/c5ccc(OC)cc5)N=C4c4ccccc4)c4ccccc34)C2=O)cc1	inactive	–	–
O=C1N[C@@H]2C(=C[C@H](O)[C@@H](O)[C@H]2O)c2cc3c(c(O)c21)OCO3	inactive	–	–
O=C(c1ccco1)C1CC(c2ccc3ccccc3c2O)=NN1c1ccc([N+](=O)[O-])cc1[N+](=O)[O-] (centres undefined)	–	> 200 µM	15.8 µM
CCCCCCNC(=O)Sc1ccccc1C(=O)N[C@H](C)C(N)=O	–	0.141 µM	107 µM
Cc1ccc(SS(=O)(=O)c2ccc([N+](=O)[O-])cc2)cc1	–	> 60.3 µM	40.7 µM
Cc1cc(Cl)ccc1N=C1NC(=O)C(CC(=O)Nc2ccc(Cl)cc2Cl)S1 (centres undefined)	–	> 407 µM	224 µM
CC1OC(Oc2c(-c3cc(O)c(O)c(O)c3)oc3cc(O)cc(O)c3c2=O)C(O)C(O)C1O (centres undefined)	inactive	–	–
CC(C)CCCC(C)[C@H]1CCC2C3CC[C@H]4C[C@@H](CCCP(=O)(c5ccccc5)c5ccccc5)CC[C@]4(C)C3CC[C@@]21C (some centres undefined)	–	> 50.1 µM	> 50.1 µM
CC(C)=Cc1cc(C(=O)NCCNC(=O)c2cc(C=C(C)C)nc(NC#N)n2)nc(NC#N)n1	–	> 5.89 µM	> 5.89 µM
O=c1c2cccc3c4ccccc4c4sc5ccccc5n1-c4c23	–	> 11.5 µM	> 11.5 µM
CCOC(=O)N1CCc2cc(OC)c(OC)c3c2C1CC3=O (centres undefined)	inactive	–	–
c1cc(-c2csc(-c3ccsc3)c2)cs1	–	> 200 µM	> 200 µM
CC(O)CN1c2ccccc2Sc2ccc(Cl)cc21 (centres undefined)	–	> 200 µM	42.7 µM
NNc1ccc2cc(S(=O)(=O)O)cc(S(=O)(=O)O)c2c1	–	> 741 µM	331 µM
COc1ccc(CNC(=O)NCn2cc(-c3ccccc3)nn2)cc1	–	> 200 µM	> 200 µM
O=c1cc(O)nc2cn[nH]n12	–	> 234 µM	> 234 µM
Clc1ccc(N=Nc2nc3ccccc3nc2N=Nc2ccc(Cl)cc2Cl)c(Cl)c1	–	> 0.794 µM	> 0.794 µM
NC(=O)c1c(N)ncn1C1OC(CO)C(F)C1O (centres undefined)	–	> 200 µM	> 200 µM
O=C(CCCC[P+](c1ccccc1)(c1ccccc1)c1ccccc1)c1ccccc1	–	> 200 µM	0.661 µM
COc1ccc(N=[N+]([O-])c2ccc(OC)cc2)cc1	–	> 200 µM	> 200 µM
O=C(Nn1cnn2c(=O)c3ccccc3nc2c1=O)c1ccccc1	–	> 200 µM	> 200 µM
O=C1C2c3[nH]c4ccccc4c3[C@@H]3CCCCC3C2C(=O)N1c1ccccc1 (some centres undefined)	inactive	–	–
